Measured values as given in US5852050A, “Preparation for treating wounds or hemorrhoids” (Kaken Pharmaceutical Co., Ltd., priority 1992, dated 1998).
Entries after “also recorded” stand apart in the source; their conditions may differ. Like-named read-outs stand apart in the source and are kept apart here.

Assays:
[1] = tested on: Experimental Hemorrhoids Model in Rats; assay: Therapy effects on experimental hemorrhoids model in rats (croton oil); format: in vivo, Male SLC: Wistar rats; conditions: for Wet weight of anus-rectum: twice a day for 4 days, average ± standard error, * P < 0.05 vs control
Experimental: (§1) Prevention and Therapy Effects on Experimental Hemorrhoids Model in Rats
(§2) A mixture of 1 volume of distilled water, 4 volumes of pyridine, 5 volumes of ethyl ether and 10 volumes of a 3% croton oil ethyl ether solution was used. The distilled water and a small amount of ethyl ether were added to, and blended with, the pyridine, and the 3% croton oil ethyl ether solution was added. Further, the remaining ethyl ether was added, and the mixture was vigorously stirred to prepare an inflammation-inducing agent containing croton oil. This solution was prepared just before the test, and stored with ice cooling during the test.
(§3) Beraprost (sodium salt) was dissolved in distilled water to prepare a solution for oral administration and dissolved in a saline solution to prepare a solution for intrarectal administration.
(§4) In the test of effects on the prevention of hemorrhoids, the dosage for oral administration was 0.1, 0.3 or 1.0 mg/kg, and the dosage for intrarectal administration was 0.01, 0.03, 0.1, 0.3 or 1.0 mg/kg. In the tests of effects on the therapy of hemorrhoids, the dosage for oral administration was 0.1 mg/kg, and the dosage for intrarectal administration was 0.03 mg/kg. Further, the dosage of the solution for oral administration was 10 ml/kg, and the dosage of the solution for intrarectal administration was 100 μl/kg.
(§5) Seven to 8 rats were used as one group.
In the test of effects on the therapy of hemorrhoids, inflammation was induced with an inflammation-inducing agent containing croton oil in the same manner as in the test of effects on the prevention. Beraprost was administered twice a day in the morning and evening for 4 days, and the administration was started one day after the induction of inflammation. Rectum-anus portions isolated after 5 days in the same manner as in the test of effects on prevention were measured for a weight.
(§6) In addition, distilled water alone was administered to the control group for oral administration, and a saline solution (vehicle) alone was administered to the control group for intrarectal administration. Further, for comparison, a non-treated group which was neither treated with the inflammation-inducing agent containing croton oil and nor treated with a medicament and which was neither administered with distilled water nor administered with a saline solution was tested in the same manner.
(§7) For the effect of beraprost on the weight of the rectum-anus portion, the difference from the control group was determined according to Student's t test, and for the histological data, the difference from the control group was determined according to Kruskal-Wallis H test. Further, the inhibition ratio was calculated on the basis of the rectum-anus portion average weight of each group by the following equation.
(§8) Inhibition ratio (%)={1-[medicament-administered group-non-treated
(§9) group)/(control group-non-treated group)]}×100

Solubility in water = format: physicochemical; conditions: beraprost or a salt thereof, powder
[2] = tested on: Experimental Hemorrhoids Model in Rats; assay: Prevention effects on experimental hemorrhoids model in rats (croton oil); format: in vivo, Male SLC: Wistar rats; design: Mucosa Bleeding, Necrosis, Peeling (total length from anus transition portion) / Mucosa Red thrombus (number of thrombus) / Mucosa Epithelium Activation, number of rats / Mucosa Congestion, number of rats / Submucosa Swelling, number of rats / Submucosa Inflammatory cell infiltration, number of rats: dose or concentration left out as unconfirmed; conditions: for Submucosa Inflammatory cell infiltration, number of rats / Mucosa Congestion, number of rats / Mucosa Epithelium Activation, number of rats / Submucosa Swelling, number of rats: 8 rats
Experimental: as §1, §2, §3, §4, §5
In the test of prevention of hemorrhoids, beraprost was orally or intrarectally administered, and 30 minutes after the administration, 100 μl of the inflammation-inducing agent containing croton oil was infiltrated into the tampon of a swab and the tampon was inserted into the anus of each rat under no anesthesia for 10 seconds to induce inflammation.
Three hours after the induction of inflammation, the rats were sacrificed by bleeding under anesthesia with ethyl ether, and a rectum-anus portion was taken from each rat such that it was exactly 20 mm long from a circular hairline on the anus epithelium, and measured for a weight.
Further, in the intrarectally administered group, the isolated rectum-anus portion was fixed with a 10% neutral buffer formalin solution, and paraffin sections, Hematoxyrin-Eosin-stained specimens and Phosphotungstic acid hematoxyin-stained specimens were prepared according to conventional methods. Then, these were observed and their photographs were taken through an optical microscope The histological data obtained by the intrarectal administration of beraprost were examined.
as §6, §7, §8, §9

[3] = tested on: full-thickness skin layer wounds of diabetic mice; assay: Effect of Beraprost on Wound Healing in full-thickness skin wound model of diabetic mice; format: in vivo, hereditary diabetic mice (C57BL/KsJ-dbm (db+/db+))
Source text: Effect of Beraprost on Wound Healing in Full Sickness Wound Model of Diabetic Mice Whose Full-Thickness Skin Layer was Ablated
Hair on the backs of hereditary diabetic mice (C57BL/KsJ-dbm (db+/db+), male, 11 to 12 weeks of age, 6 mice per group) was removed one day before a test. The back portions of the mice were cleaned with ethanol under ether anesthesia, and circular full-thickness skin layer wounds (2 cm^2) were formed in the middle portions of the backs with surgical curved scissors.
Beraprost (sodium salt) as a test medicament was prepared in the form of a saline solution containing 20 % ethanol, and the saline solution was dropwise administered at a dosage of 5 μg/10 μl/cm^2 ×14 times (once per day for 14 days). As control, a solution (vehicle) containing no medicament was administered.
For evaluating the effects of the test medicament, the wound surfaces were traced on plastic sheets at intervals of 2-3 days, and measured for wound areas with a planimeter. The ratios of the wound areas to the area immediately after the skin ablation were calculated, and the numbers of days required for the visual completion of epidermization (complete healing) from the skin-removed wounds were used as indices.
Further, the degrees of the vascularization and granulation of wound surfaces were visually scored, and changes with the passage of days and side effects were observed.
Further, an exudate was collected 9 days after the skin ablation, and a mixture of the exudate with a saline solution used for washing the wound was measured for a leucocyte number through a microscope.
Further, the mice were sacrificed by ether anesthesia on 31th day, and skins of the wound portions were cut off and fixed with a 10% neutral buffer formalin solution. Then, paraffin sections, Hematoxyrin-Eosin-stained specimens and Masson trichrome-stained specimens were prepared according to conventional methods and observed through a microscope.

Chemical stability = format: physicochemical; conditions: beraprost or a salt thereof, powder
[4] = background statement; cited from earlier work
[5] = intrarectal 0.03 mg/kg, on average, P<0.01
[6] = intrarectal, average ± standard error, ** P < 0.01
[7] = score + (Low degree), intrarectal, distribution XX P < 0.01
[8] = score ++ (Intermediate degree), intrarectal
[9] = 9 days after the administration, as compared with vehicle
[10] = 9 days after the administration, mean ± S.E., ** P < 0.01 vs vehicle
[11] = score + (Low degree), 31 days after the skin ablation
[12] = score + (Low degree), 31 days after the skin ablation, distribution * P < 0.05 (H test)
[13] = score ++ (Intermediate degree), 31 days after the skin ablation
[14] = score +++ (High degree), 31 days after the skin ablation
[15] = score - (Not affected), 31 days after the skin ablation

Structure (SMILES): CC#CCC(C)[C@H](O)/C=C/[C@@H]1[C@H]2c3cccc(CCCC(=O)O)c3O[C@H]2C[C@H]1O (relative stereo) [Beraprost, (±)-(1R*, 2R*,3aS*,8bS*)-2,3,3a,8b-tetrahydro-2-hydroxy-1-[(E)-(3S*)-3-hydroxy-4-methyl-1-octen-6-ynyl]-1H-cyclopenta[b]benzofuran-5-butyric acid]
- Inhibition ratio ([1]; i.r. 0.03 mg/kg): 31.4%
- Wet weight of anus-rectum ([1]; i.r. 0.03 mg/kg): 368.5 ± 27.35 mg
- activity for inhibiting the swelling (in words) ([1]; oral 0.1 mg/kg and intrarectal 0.03 mg/kg, P<0.05): significant (P<0.05) activity for inhibiting the swelling
- Inhibition ratio ([1]; p.o. 0.1 mg/kg): 27.1%
- Wet weight of anus-rectum ([1]; p.o. 0.1 mg/kg): 380.7 ± 23.74 mg
- solubility in water (Solubility in water): soluble in water
- dosage group with the largest effect ([2]; intrarectal): 0.03 mg/kg
- Inhibition ratio ([2]; intrarectal 0.01 mg/kg): 22.9%
- Wet weight of anus-rectum ([2]; intrarectal 0.01 mg/kg, average ± standard error, ** P < 0.01 vs control): 303.3 ± 6.25 mg
- Inhibition ratio ([2]; intrarectal 0.03 mg/kg): 35.8%
- histology of rectum (in words) ([2]; intrarectal 0.03 mg/kg): the degrees of swelling and inflammatory cell infiltration lowered; also recorded: the mucosal epithelial cell nucleus was more densely stained than in a normal portion, and cells which appeared to be in an active state were distinctly observed; also recorded: the degree of congestion was lowered
- Wet weight of anus-rectum ([2]; intrarectal 0.03 mg/kg, average ± standard error, ** P < 0.01 vs control): 277.3 ± 12.88 mg
- number of blood vessels having red thrombus [2, 5]: 6.8±2.35
- range of bleeding, necrosis and peeling of mucosal layer [2, 5]: 5.4±0.19 mm
- Inhibition ratio ([2]; intrarectal 0.1 mg/kg): 30.1%
- Wet weight of anus-rectum ([2]; intrarectal 0.1 mg/kg, average ± standard error, ** P < 0.01 vs control): 288.7 ± 5.63 mg
- Inhibition ratio ([2]; intrarectal 0.3 mg/kg): 24.6%
- Wet weight of anus-rectum ([2]; intrarectal 0.3 mg/kg, average ± standard error, ** P < 0.01 vs control): 299.7 ± 9.74 mg
- Inhibition ratio ([2]; intrarectal 1.0 mg/kg): 20.5%
- Wet weight of anus-rectum ([2]; intrarectal 1.0 mg/kg, average ± standard error, * P < 0.05 vs control): 308.0 ± 14.51 mg
- inhibition of rectum-anus weight increase (in words) ([2]; intrarectal 0.01 to 1.0 mg/kg, P<0.05 to 0.01): significant inhibition activity
- Mucosa Bleeding, Necrosis, Peeling (total length from anus transition portion) [2, 6]: 5.4 ± 0.19 mm
- Mucosa Red thrombus (number of thrombus) [2, 6]: 6.8 ± 2.35
- Inhibition ratio ([2]; oral 0.1 mg/kg): 24.5%
- Wet weight of anus-rectum ([2]; oral 0.1 mg/kg, average ± standard error, ** P < 0.01 vs control): 307.1 ± 5.87 mg
- Inhibition ratio ([2]; oral 0.3 mg/kg): 32.3%
- Wet weight of anus-rectum ([2]; oral 0.3 mg/kg, average ± standard error, ** P < 0.01 vs control): 292.5 ± 11.28 mg
- Inhibition ratio ([2]; oral 1.0 mg/kg): 39.3%
- Wet weight of anus-rectum ([2]; oral 1.0 mg/kg, average ± standard error, ** P < 0.01 vs control): 279.3 ± 8.32 mg
- swelling inhibition activity (in words) ([2]; oral 0.1 to 1.0 mg/kg, depending upon the dosage): clear swelling inhibition activity depending upon the dosage
- swelling in rectum-anus portion and histopathological data (overall, in words) ([2]; orally and intrarectally administered): clearly inhibits the swelling; also recorded: remarkable effects in histopathological data
- Submucosa Inflammatory cell infiltration, number of rats ([2]; score + (Low degree), intrarectal, distribution X P < 0.05): 5
- Mucosa Congestion, number of rats [2, 7]: 8
- Mucosa Epithelium Activation, number of rats [2, 7]: 2
- Mucosa Congestion, number of rats [2, 8]: 0
- Mucosa Epithelium Activation, number of rats [2, 8]: 6
- Submucosa Inflammatory cell infiltration, number of rats [2, 8]: 3
- Submucosa Swelling, number of rats ([2]; score ++ (Intermediate degree), intrarectal, distribution XX P < 0.01): 8
- Submucosa Swelling, number of rats ([2]; score +++ (High degree), intrarectal): 0
- Mucosa Epithelium Activation, number of rats ([2]; score - (No change), intrarectal): 0
- change ratio of wound area ([3]; 3 days after administration, 5 μg/10 μl/cm^2 once per day for 14 days, mean ± S.E.): 95.7 ± 2.50%
- amount of exudate (in words) [3, 9]: clear increase
- number of infiltrated leucocyte (in words) [3, 9]: clear increase
- Amount of exudate [3, 10]: 36.6 ± 10.73 µL
- Number of infiltrated leucocyte [3, 10]: 110.1 ± 31.66 × 10^4 cells/site
- change ratio of wound area ([3]; 10 days after administration, mean ± S.E., ** P < 0.01 vs vehicle): 24.4%
- change ratio of wound area ([3]; 21 days after administration, mean ± S.E., * P < 0.05 vs vehicle): 0.1%
- histology of skin ablation portions (in words) ([3]; 31 days after the skin ablation): the whole areas were covered with regenerated skin and the exudate of the dermis disappeared; also recorded: the tissue showed transition to fibrosis, no formation of abnormal tissue or no scar of excess formation was shown, and normal wound healing was shown
- completion of healing first observed ([3]; day after administration): from the twenty-first day after administration
- wound surfaces (decrease, in words) ([3]; from the sixth day after administration, as compared with vehicle): remarkable decreases
- Days until complete healing ([3]; mean ± S.E., ** P < 0.01 vs vehicle): 22 days
- systemic side effects ([3]; mouse, in vivo): no systemic side effects
- weight difference from vehicle-administered group ([3]; mouse, in vivo): no weight difference was observed
- Dermis, Subcutaneous tissue Exudate, number of cases [3, 11]: 1 cases in six mice
- Epidermis Hypertrophy, number of cases [3, 11]: 1 cases in six mice
- Epidermis Regeneration, number of cases [3, 11]: 0 cases in six mice
- Dermis, Subcutaneous tissue Fibrosis, number of cases [3, 12]: 0 cases in six mice
- Dermis, Subcutaneous tissue Granulation, number of cases [3, 12]: 2 cases in six mice
- Dermis, Subcutaneous tissue Fibrosis, number of cases [3, 13]: 2 cases in six mice
- Dermis, Subcutaneous tissue Granulation, number of cases [3, 13]: 0 cases in six mice
- Epidermis Regeneration, number of cases ([3]; score ++ (Intermediate degree), 31 days after the skin ablation, distribution * P < 0.05 (H test)): 0 cases in six mice
- Dermis, Subcutaneous tissue Fibrosis, number of cases [3, 14]: 4 cases in six mice
- Epidermis Regeneration, number of cases [3, 14]: 6 cases in six mice
- Dermis, Subcutaneous tissue Fibrosis, number of cases [3, 15]: 0 cases in six mice
- Dermis, Subcutaneous tissue Granulation, number of cases [3, 15]: 4 cases in six mice
- Epidermis Regeneration, number of cases [3, 15]: 0 cases in six mice
- Dermis, Subcutaneous tissue Exudate, number of cases ([3]; score - (Not affected), 31 days after the skin ablation, distribution * P < 0.05 (H test)): 5 cases in six mice
- vascularization and granulation on the wound surfaces ([3]; visual, as compared with vehicle-administered group): clear expeditious progress in the vascularization and granulation
- chemical stability (Chemical stability): chemically stable
- chemical stability [4]: chemically stable
